Entries after “also recorded” stand apart in the source; their conditions may differ.

Here are results for 5 compounds from patent publication US9675607B2, “Epimorphic regeneration and related hydrogel delivery systems” (Northwestern University, priority 2013, dated 2017).

The subject of one series is 3T3 fibroblasts. As to the kind of experiment: Cell viability, ISO 10993 neutral red. It counts as cell-based. As to conditions: 24 hours, positive control. How it is done:
Viability of 3T3 fibroblasts exposed to drug microcrystals was quantified using ISO 10993. Briefly, different dilutions of drug microcrystals in cell culture medium were added to a subconfluent monolayer of 3T3 fibroblasts (n=3). The cells were cultured for 24 hours at 37° C., 5% CO2, and >90% RH and then washed with PBS. Neutral red solution (0.4%) in DMEM was added, and the cells were stained for 3 hours. Following removal of the staining solution and washing the cells with PBS, the cells were destained using 50% ethanol, 49% ddH2O and 1% glacial acetic acid. Following 10 minutes of agitation, absorbance was measured at 540 nm and used to quantify cell viability. […] Culture medium was used as a negative control. Cell culture medium consisted of high glucose DMEM substituted with L-glutamine, penicillin/streptomycin, 10% v/v newborn calf serum and 20 mM HEPES.

Another series concerns collagen hydroxylation. As to conditions: rats given this compound; cited from earlier work.
For series [1], the system named is hydroxylases (PHDs and FIH). The conditions noted are these: cited from earlier work.
Another series concerns prolyl 4-hydroxylase. The conditions noted are these: cited from earlier work.
In the next series the test system is HIF1a. Briefly: HIF1a levels in injured ear tissue of SW mice after subcutaneous drug/gel injection (Western, IHC). It counts as in vivo, mouse. As to conditions: single 100 ul injection, 2 mg/ml drug microcrystals; Western and IHC. The protocol: The kinetics of the effectiveness of the drug/gel construct in the injured ear was examined to determine how often re-injection would be necessary. After earpunching, a single injection (100 ul) of hydrogel containing either 2 mg/ml drug microcrystals (Gd) or 0 mg/ml drug microcrystals (G0) was given plus an un-injected group. Ears were harvested daily for 5 days (FIG. 3D).
(§1) Ear tissue samples (3 ear hole donuts/ear from 3 separate mice) were homogenized in radio-immunoprecipitation assay buffer (50 mM Tris-HCl pH 7.6, containing 150 mM NaCl,1% Triton X-100, 1% sodium deoxycholate, 1 mM EDTA and 0.1% SDS) with 1 mM PMSF and a protease inhibitor cocktail (Sigma). Samples with equal amounts of protein (about 40 μg) were loaded into a NuPAGE 4-12% Bis-Tris gradient gel or 8% Bis-Tris gel (Life Technologies, Grand Island, N.Y.), electrophoresed and then electro-transferred onto a PVDF-FL membrane (Immobilon, Billerica, Mass.).
The methods used were performed as previously described. […]
For quantitation of IHC signal, the method used was previously described. […] The number of “positive staining” pixels was determined. The area was expressed in square microns and the final data were expressed as IHC staining signal per square micron. The mean of 2-6 samples were plotted and standard errors calculated. […]

The next series can be described thus: Solubility of 1,4-DPCA. In kind it is physicochemical.
Series [2] concerns HIF target gene transcription. As to the kind of experiment: RT-PCR of HIF target gene transcription in treated B6 cells. It counts as cell-based, mouse. How it is done: (§2) Total RNA from ear fibroblast-like cells or ear hole donuts was prepared with Qiagen RNeasy kit (Qiagen) according to the manufacturer's guidelines. First strand cDNA was synthesized from 1 μg of RNA using the Superscript First-Strand Synthesis System (Invitrogen, Carlsbad, Calif.) according to the manufacturer's instructions. qPCR was performed with SYBR green PCR Master Mix (Applied Biosystems, Life Technologies). In brief, a 20 μl mixture was used containing 10 μl SYBR Green PCR master mix, 1 μl forward and reverse primer, 6 μl sterile water, and 2 μl of complementary DNA template. A negative control (non-template control) was performed in each run. The real-time PCR was performed using a Quant Studio 6 Flex (Applied Biosystems) according to the manufacturer's instructions. All data were normalized to 18S rRNA and quantitative measurements were obtained using the ΔΔCT method. (The primers used are listed with the kit, but not shown, here.

For a further series, the system named is SW ear tissue. As to the kind of experiment: Histology, immunostaining and qPCR of injured ear tissue of SW mice. In kind it is in vivo, mouse. How it is done: as §2
The methods used were performed as previously described. Tissue from normal ears were fixed with Prefer fixative (the active ingredient is glyoxal) (Anatech) overnight and then washed in H2O. Tissue was embedded in paraffin and 5-μm thick sections cut. Before staining, slides were dewaxed in xylene and rehydrated. Antigen retrieval was performed by autoclaving for 20 min in 10 mM Sodium Citrate, pH 6.0. Tissue sections were then treated with 3% H2O2 and nonspecific binding was blocked with 4% BSA (A7906; Sigma) for 1 h. For immunocytochemistry staining, primary ear skin fibroblasts were grown on coverslips in DMEM with 10% FBS at 37° C. in a humidified 5% CO2 incubator. The coverslips were rinsed with 1×PBS, the cells were fixed in cold methanol (−20° C.) for 10 min, rinsed with 1×PBS, treated with 0.1% Triton-X100, and then incubated with the appropriate primary and secondary antibodies (Table 1). Photomicrographs were produced using the fluorescent microscope (Olympus AX70) and a Spot camera with bundled software.
For histological stains, tissue sections were treated the same as above and then stained with Hematoxylin (Leica Microsystems, #3801562) and Eosin (Leica Microsystems, #3801602), Picro-Sirius Red (Poly Scientific, cat. # s2365), Alcian blue (1% in 3% acetic acid (Polyscience, Bay Shore, N.Y., cat # S111A), or toluidine blue O (Allied Chemical, Morristown, N.J., cat. # NA0652), counterstained with Kernechtrot (Polyscience, Bay Shore, N.Y., cat # S248). The slides were washed, […], cleared with Xylene and coverslipped with Permount mounting media (Fisher, SP15-500). Staining was visualized using an Olympus (AX70) microscope in bright field for H&E and under polarized light for Picro-Sirius Red.
For quantitation of IHC signal, the method used was previously described. Briefly, we used ImagePro v4.0 for image analysis by selecting positive staining from multiple areas in the sections. The number of “positive staining” pixels was determined. The area was expressed in square microns and the final data were expressed as IHC staining signal per square micron. The mean of 2-6 samples were plotted and standard errors calculated.
A general note: Real-time PCR tracks product formation cycle by cycle.

In a further series the test system is HIF2a. Briefly: HIF2a levels in injured ear tissue of SW mice (Western). It counts as in vivo, mouse. How it is done:
as §1
Mice were injected subcutaneously at the base of the neck with 100 μL of 10% (w/v) 1:1 (w/w) ratio of P8Cys (with or without 1,4-DPCA drug crystal) to P8NHS hydrogel prepared in PBS. Each component was kept cold and mixed just prior to injection. At different time points, mice were euthanized and tissues were removed for protein and RNA analysis.

For a further series, the system named is diabetic wound. As to conditions: applied directly to the wound site; cited from earlier work.
A further series relates to Swiss Webster (SW) mice. As to the kind of experiment: Ear hole closure in ear-punched Swiss Webster mice. In kind it is in vivo, mouse. The conditions noted are these: SW mice given 2 mg/ml drug/gel 3 times plus the inhibitor. From the text: Inbred mouse strains were used to study the effect of a small molecule inhibitor of PHD on in-vitro and in-vivo levels of HIF1a, and the impact of this on quantitative regenerative ear hole closure phenotypes. In animal studies, 2.1 mm ear hole punch wounds were created and a 1,4-DPCA-containing hydrogel was subcutaneously implanted in the back of the neck of mice at multiple time-points. Healing was monitored by measuring hole diameters. Endpoints of the study were previously determined to be 30+ days post-injury and included key indices of tissue regeneration such as blastema formation, epithelial, dermal, and cartilaginous wound closure with hair follicle replacement plus multiple molecular markers of cellular de-differentiation, re-differentiation, and stem cell state. These parameters were determined by physical measurements of wound closure, standard tissue histology and histomorphometry, and gene expression using quantitative immunohistochemistry, western analysis, and qPCR. The experimental groups were coded and different laboratory personnel were involved in injuries, injections, phenotyping and data analysis. […]

Where [3] appears, read: day 7, 1,4-DPCA drug/gel-treated SW mice plus inhibitor.

Turning to `CCCCCCCCCCCCOS(=O)(=O)[O-].[Na+]` [SDS], in the series on 3T3 fibroblasts, the “IC50, cell viability” value is “in the acceptable range”.

On to `O=C(O)c1c[nH]c2c(ccc3cccnc32)c1=O` [1,4-DPCA, 1,4-dihydrophenonthrolin-4-one-3-carboxylic acid], for which the “collagen hydroxylation and collagen deposition” value in the series with collagen hydroxylation is “inhibition of collagen hydroxylation and a reduction in collagen deposition”. The “inhibition of the hydroxylases in-vitro and in-vivo at the protein level” value in series [1] is “potent inhibitor”. The “inhibition of prolyl 4-hydroxylase” value in the series with prolyl 4-hydroxylase was “selective and potent inhibitor”. Besides, in the series on HIF1a, the “day on which HIF1a levels in the ear begin to rise” value came to 1 days and the “days of peak HIF1a levels in the ear post-injection” value is 3 to 4 days. Also, the solubility in water result in “Solubility of 1,4-DPCA” is “low solubility”. In addition, the “HIF target genes Vegf, Hmox1, Ldh-a, Pgk, Pdk1, Glut1 mRNA” value in series [2] was “specifically increased”. Also, in the series with SW ear tissue (SW ear tissue, immunostaining), the “Laminin (basement membrane) in ear tissue” value was “reduced”; the “MMP9 in ear tissue” value is recorded as “increased”; the “inflammatory cell markers MPO and Ly6G in ear tissue” value is listed as “increased”. In addition, the “HIF2a in ear tissue in-vivo” value in the series with HIF2a is given as “barely affected”.

Consider `CC(=O)N(O)CCCCCNC(=O)CCC(=O)N(O)CCCCCNC(=O)CCC(=O)N(O)CCCCCN` [DFX, desferrioxamine B], for which the diabetic wound healing result with diabetic wound is on record as “enhance diabetic wound healing”.

As for `COC(=O)CNC(=O)C(=O)OC` [DMOG, dimethyloxallyl glycine], in the series with diabetic wound, the diabetic wound healing result was “enhance diabetic wound healing”.

For the compound Endostatin, in the series with Swiss Webster (SW) mice, the “effect on ear hole closure induced by 1,4-DPCA drug/gel” value is on record as “almost complete blockage of ear hole closure”. In the series on SW ear tissue (setting [3]), the “HIF1a, CD31 and OCT3/4 staining” value is recorded as “near complete absence”; the “MMP-9, MPO and neutrophil specific-marker” value was “did not inhibit; also recorded: to a lesser degree”. In addition, the laminin staining result with SW ear tissue (day 7, 1,4-DPCA drug/gel-treated SW mice, endostatin compared with siHif1a_3) is reported as “greater degree of inhibition”.
